Data set [1] relates to GFP protein synthesis. Put plainly: Toxicity in human HeLa cells expressing pCFE-GFP assessed as inhibition of GFP proetin synthesis at 25 uM incubated for 30 mins measured for 2 hrs by spectrophotometric method relative to control. Format: cell-based.
Data set [2] is described as follows: Cytotoxicity against African green monkey Vero cells assessed as reduction in cell proliferation after 72 hrs by MTT assay. Type of data set: cell-based. The settings on record: chlorocebus sabaeus. For orientation: Tetrazolium assays rely on reduction of a dye to a coloured formazan, in cell work by metabolically active cells.
The test system of data set [3] is HL-60. Put plainly: cells. The settings on record: Homo sapiens, HL-60, 72 h.
Description: Antiproliferative activity against human HL60 cells after 72 hrs by MTT assay
Data set [4] concerns MOLT-4. Put plainly: cells. The settings on record: Homo sapiens, MOLT-4, 72 h.
Description: Antiproliferative activity against human MOLT4 cells after 72 hrs by MTT assay
Data set [5] deals with Puromycin-sensitive aminopeptidase (Homo sapiens, UniProt P55786). Put plainly: Inhibition of recombinant human N-terminal His6-MBP-tagged PSA expressed in Escherichia coli BL21 STAR (DE3) using 4-Ala-MNA as substrate measured for 30 mins by thefluorescence assay.
Data set [6] addresses Aminopeptidase N (Homo sapiens, UniProt P15144). As to the kind of experiment: Inhibition of recombinant human C-terminal His10-tagged APN (Lys69 to Lys967 residues) using Ala-AMC as substrate measured for 30 mins by fluorescence assay.
The test system of data set [7] is GFP protein synthesis. Put plainly: Toxicity in human HeLa cells expressing pCFE-GFP assessed as inhibition of GFP proetin synthesis at 10 uM incubated for 30 mins measured for 2 hrs by spectrophotometric method relative to control. Format: cell-based.

Here are results for eleven compounds from ChEMBL document CHEMBL4130381, “Puromycin based inhibitors of aminopeptidases for the potential treatment of hematologic malignancies” (Eur J Med Chem, 2017).

Each structure is given as a SMILES string. Where only a bound is given, the exact number is not on record here.

As a reminder, the inhibition is the share of the control response that was lost under treatment. One may read the CC50 as the concentration giving 50% cytotoxicity. Broadly, the EC50 is the concentration needed to bring the measured effect to its halfway point. By IC50 is commonly meant the concentration at which inhibition is half-maximal.

Puromycin-sensitive aminopeptidase, sequence (P55786 whole entry): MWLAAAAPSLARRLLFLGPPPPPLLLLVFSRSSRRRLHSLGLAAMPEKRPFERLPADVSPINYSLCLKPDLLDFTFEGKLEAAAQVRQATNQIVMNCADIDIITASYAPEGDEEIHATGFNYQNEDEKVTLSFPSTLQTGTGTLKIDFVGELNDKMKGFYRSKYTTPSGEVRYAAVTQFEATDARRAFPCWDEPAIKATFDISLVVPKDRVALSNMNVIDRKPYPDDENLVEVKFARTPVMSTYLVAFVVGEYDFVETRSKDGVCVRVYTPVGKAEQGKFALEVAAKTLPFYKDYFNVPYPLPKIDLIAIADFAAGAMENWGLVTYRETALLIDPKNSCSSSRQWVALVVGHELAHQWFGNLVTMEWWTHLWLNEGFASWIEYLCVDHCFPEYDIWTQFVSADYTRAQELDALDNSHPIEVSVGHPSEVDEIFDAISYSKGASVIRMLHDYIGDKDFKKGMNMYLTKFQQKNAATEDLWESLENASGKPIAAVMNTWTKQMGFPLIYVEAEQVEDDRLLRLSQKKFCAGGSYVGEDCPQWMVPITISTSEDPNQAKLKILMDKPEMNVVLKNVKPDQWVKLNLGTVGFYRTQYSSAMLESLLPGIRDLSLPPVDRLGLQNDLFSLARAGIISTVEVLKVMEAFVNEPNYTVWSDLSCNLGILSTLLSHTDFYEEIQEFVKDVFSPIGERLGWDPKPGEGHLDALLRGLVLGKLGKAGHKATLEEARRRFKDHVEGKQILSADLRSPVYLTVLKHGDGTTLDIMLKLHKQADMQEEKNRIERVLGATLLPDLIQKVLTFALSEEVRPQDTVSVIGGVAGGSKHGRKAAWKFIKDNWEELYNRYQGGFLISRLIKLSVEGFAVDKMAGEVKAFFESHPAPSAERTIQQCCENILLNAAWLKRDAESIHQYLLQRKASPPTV
Aminopeptidase N, sequence (P15144 whole entry): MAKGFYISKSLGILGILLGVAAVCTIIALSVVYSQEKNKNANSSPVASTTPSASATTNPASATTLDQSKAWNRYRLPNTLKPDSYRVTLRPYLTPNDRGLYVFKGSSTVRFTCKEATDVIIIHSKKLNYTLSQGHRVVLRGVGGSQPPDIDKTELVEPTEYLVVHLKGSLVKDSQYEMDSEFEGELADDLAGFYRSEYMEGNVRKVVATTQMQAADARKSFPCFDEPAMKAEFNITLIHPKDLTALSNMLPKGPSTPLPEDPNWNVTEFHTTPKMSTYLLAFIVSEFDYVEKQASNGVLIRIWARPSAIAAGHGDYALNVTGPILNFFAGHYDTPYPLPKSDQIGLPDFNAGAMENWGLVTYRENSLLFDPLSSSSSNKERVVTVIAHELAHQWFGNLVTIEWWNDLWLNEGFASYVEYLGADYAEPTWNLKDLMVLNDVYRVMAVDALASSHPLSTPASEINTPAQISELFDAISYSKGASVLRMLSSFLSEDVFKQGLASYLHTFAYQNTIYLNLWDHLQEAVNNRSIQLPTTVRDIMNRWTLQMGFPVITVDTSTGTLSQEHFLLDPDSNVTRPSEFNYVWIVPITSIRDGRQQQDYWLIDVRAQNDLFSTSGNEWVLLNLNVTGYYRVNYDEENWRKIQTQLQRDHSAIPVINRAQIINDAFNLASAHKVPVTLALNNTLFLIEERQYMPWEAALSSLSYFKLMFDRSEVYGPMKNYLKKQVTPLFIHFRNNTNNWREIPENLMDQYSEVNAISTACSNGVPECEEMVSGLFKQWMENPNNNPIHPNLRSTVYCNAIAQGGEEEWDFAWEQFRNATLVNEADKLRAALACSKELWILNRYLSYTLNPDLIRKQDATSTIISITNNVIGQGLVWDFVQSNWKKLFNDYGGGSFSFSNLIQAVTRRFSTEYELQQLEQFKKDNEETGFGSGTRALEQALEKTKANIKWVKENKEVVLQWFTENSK

Turning to `CN(C)c1ncnc2c1ncn2[C@@H]1O[C@H](CO)[C@@H](NC(=O)[C@H](N)CSCc2ccccc2)[C@H]1O`, the inhibition at 30 min, 25 µM in data set [1] was 0%. For the same compound, in data set [2], the CC50 at 72 h was 17 µM. The concentration giving a half-maximal response (EC50) in data set [3] amounted to 46 µM; in data set [4] it was 14 µM.
As for `CC(C)C[C@@H](C(=O)N[C@H](C(=O)OC1CCCC1)c1ccccc1)[C@H](O)C(=O)NO` [TOSEDOSTAT], the concentration for half-maximal inhibition (IC50) turned out to be 0.26 µM in data set [5] and 0.68 µM in data set [6]. Besides, the inhibition at 30 min, 25 µM in data set [1] was 35%. In data set [2], the CC50 at 72 h was 13 µM. Besides, the figures for the EC50 in data set [3] and in data set [4] were 4.7 µM and 2.1 µM, respectively.
As for `CN(C)c1ncnc2c1ncn2[C@@H]1O[C@H](CO)[C@@H](NC(=O)[C@@H](N)CSC(c2ccccc2)(c2ccccc2)c2ccccc2)[C@H]1O`, in data set [1], the inhibition at 30 min, 25 µM is 0%. For the same compound, in data set [2], the half-maximal cytotoxic concentration (CC50) at 72 h is greater than 100 µM. Besides, the concentration giving a half-maximal response (EC50) in data set [3] is greater than 100 µM; in data set [4] it was 31 µM.
As to `COc1ccc(C[C@H](N)C(=O)N[C@H]2[C@@H](O)[C@H](n3cnc4c(N(C)C)ncnc43)O[C@@H]2CO)cc1` [PUROMYCIN], the figures for the concentration for half-maximal inhibition (IC50) in data set [5] and in data set [6] were 9.7 µM and 41 µM, respectively. In addition, the inhibition at 30 min, 25 µM in data set [1] came to 99%. Further, in data set [2], the CC50 at 72 h stood at 2.8 µM. In addition, the EC50 in data set [3] amounted to 0.055 µM; in data set [4], 0.17 µM.
In the case of `N[C@@H](CSC(c1ccccc1)c1ccccc1)C(=O)NCCCO`, the inhibition at 30 min, 25 µM in data set [1] came to 0%. The half-maximal cytotoxic concentration (CC50) at 72 h in data set [2] is greater than 100 µM. Also, the EC50 in data set [3] and in data set [4] was greater than 100 µM in each case.
Regarding `CC(C)C[C@H](NC(=O)[C@@H](O)[C@H](N)Cc1ccccc1)C(=O)O` [UBENIMEX], the IC50 in data set [5] was 3.5 µM. For the same compound, in data set [1], the inhibition at 30 min, 25 µM turned out to be 28%. The CC50 at 72 h in data set [2] fell in the range of 25 to 100 µM. The EC50 in data set [3] and in data set [4] was greater than 100 µM in each case.
Consider `CN(C)c1ncnc2c1ncn2[C@@H]1O[C@H](CO)[C@@H](NC(=O)[C@@H](N)CSCc2ccccc2)[C@H]1O`, for which the inhibition at 30 min, 25 µM in data set [1] stood at 30%. In addition, the CC50 at 72 h in data set [2] is 0.88 µM. The inhibition at 30 min, 10 µM in data set [7] came out at 30%. Besides, the EC50 in data set [3] stood at 0.19 µM; in data set [4] it was 0.18 µM.
Consider `CN(C)c1ncnc2c1ncn2[C@@H]1O[C@H](CO)[C@@H](NC(=O)[C@H](N)CSC(c2ccccc2)c2ccccc2)[C@H]1O`, for which, in data set [1], the inhibition at 30 min, 25 µM was found to be 0%. In data set [2], the half-maximal cytotoxic concentration (CC50) at 72 h was determined as 46 µM. Also, the results for the EC50 in data set [3] and in data set [4] were 34 µM and 11 µM, respectively.
In the same order, the values of `CN(C)c1ncnc2c1ncn2[C@@H]1O[C@H](CO)[C@@H](NC(=O)[C@@H](N)CSC(c2ccccc2)c2ccccc2)[C@H]1O` are 0%, greater than 100 µM, 32 µM and 1.3 µM.
In the same order, the values of `CN(C)c1ncnc2c1ncn2[C@@H]1O[C@H](CO)[C@@H](NC(=O)[C@@H](N)Cc2ccccc2)[C@H]1O` are 59%, 3.2 µM, 0.41 µM and 0.39 µM.
In the same order, the values of `CN(C)c1ncnc2c1ncn2[C@@H]1O[C@H](CO)[C@@H](NC(=O)[C@H](N)CSC(c2ccccc2)(c2ccccc2)c2ccccc2)[C@H]1O` are 0%, 15 µM, 10 µM and 14 µM.
